Assay results published in PMC11546339, “Conformational Plasticity Enhances the Brain Penetration of a Metabolically Stable, Dual-Functional Opioid-Peptide CycloAnt” (International Journal of Molecular Sciences, 2024).
Where a SMILES comes first, the peptide text is derived from it. Bridges are numbered along the chain shown (N, C = ends). [ ]: non-standard residue; d: D form. 2Abz = Nc1ccccc1C(=O)O; Dap = NC[C@H](N)C(=O)O

Key:
Stability in mouse serum = assay type: in vitro ADME; conditions: 37 °C, read-out: percentage of CycloAnt remaining in mouse serum
Procedure: Proteolytic instability is a major hurdle limiting the development of peptide drug. As blood is a major source of proteases that degrade peptides, we evaluated the stability of CycloAnt in mouse serum. CycloAnt at a final concentration of 20 µM was incubated with mouse serum (SigmaAldrich) at 37 °C for 8 h. At 0, 15, 30, 60, 120, 240, and 480 min, the incubation was terminated by adding 2 volumes of ice-cold acetonitrile to precipitate the proteins in the sample. After centrifugation at 10,000 rpm, supernatant was collected. The processed sample was analyzed by liquid chromatography tandem mass spectrometry (LC-MS/MS). The percentage of CycloAnt remaining at each time point was calculated (Figure 1).
Stability in mouse serum. CycloAnt was dissolved in pH 7.2 phosphate buffer saline (PBS). A total of 175 µL of CycloAnt at a final concentration of 20 µM was mixed with 2.625 mL of 100% mouse serum (SigmaAldrich) and incubated at 37 °C. The mixture was analyzed over a time course of 8 h. At the time points of 0, 15, 30, 60, 120, 240, and 480 min, 150 µL of sample were withdrawal and the reaction was terminated with 300 μL of ice-cold acetonitrile containing internal standard (IS, Tyr-[D-Lys-Phe-Tyr-Gly] at 200 ng/mL). The mixture was centrifuged at 10,000 rpm at 4 °C for 10 min. […] The percentage of peptide remaining at each time point was calculated relative to 0 min. […]

[1] = Metabolism by CYP450 in mouse liver microsomes (NADPH); assay type: in vitro ADME; conditions: 3.07 μM, 0.5 mg/mL microsomes, 1 mM NADPH, 37 °C, 120 min
Procedure: The metabolic stability of CycloAnt was then evaluated in mouse liver microsomes. CycloAnt at a final concentration of 3.07 μM was mixed with 0.5 mg/mL liver microsomes in the presence of 1 mM of NADPH and incubated at 37 °C for 2 h. At 0, 5, 15, 30, 60, and 120 min, incubation mixtures were withdrawn and processed. The supernatant was analyzed by LC-MS/MS. The percentage of CycloAnt remaining at each time point was calculated (Figure 3a).
Metabolism by CYP450 in liver microsomes. CycloAnt dissolved in pH 7.2 PBS was diluted to 8 μM. Six hundred microliters of CycloAnt were incubated with 800 μL of 0.975 mg/mL mouse liver microsomes and 160 μL of 10 mM NADPH at 37 °C for 0, 5, 15, 30, 60, and 120 min. The final concentrations of CycloAnt, mouse liver microsomes, and NADPH in the incubation mixture were 3.07 μM, 0.5 mg/mL, and 1 mM, respectively. At the designated time points, 100 μL of the incubation mixture were withdrawn and mixed with 200 μL ice-cold acetonitrile containing internal standard (IS, Tyr-[D-Lys-Phe-Tyr-Gly]), followed by centrifugation at 10,000× g at 4 °C for 10 min. An aliquot of 250 μL of supernatant was collected and dried in vacuum. The dried sample was reconstituted in 100 μL of 20% acetonitrile and stored at −20 °C before analyzed by LC-MS/MS on the next day. The experiment was performed in duplicate.

[2] = Metabolism by UGTs in mouse liver microsomes (UDPGA); assay type: in vitro ADME; conditions: 3.07 μM, 0.5 mg/mL microsomes, alamethicin, 5 mM UDPGA, 37 °C, 60 min
Procedure: Next, we examined the level of glucuronidation of CycloAnt in mouse liver microsomes using a method described elsewhere. CycloAnt at a final concentration of 3.07 μM was premixed with 0.5 mg/mL liver microsomes and a channel-forming peptide antibiotic alamethicin at 0 °C. After 15 min, the glucuronidation was initiated by adding the UDP-glucuronosyl transferases (UGTs) substrate uridine-5’-diphospho-α-D-glucuronic acid (UDPGA) to a final concentration of 5 mM and the mixture was incubated at 37 °C [19]. At 0, 5, 15, 30, and 60 min, the incubation mixture was withdrawn and processed. The supernatant was collected and analyzed by LC-MS/MS.
Metabolism by UDP-glucuronosyl transferases (UGTs) in liver microsomes. CycloAnt dissolved in pH 7.2 PBS was diluted to 8 μM. Six hundred microliters of diluted CycloAnt, 800 μL of 0.975 mg/mL mouse liver microsomes, and 14 μL of 0.5 mM alamethicin containing 10 mM MgCl2, were mixed and preincubated on ice for 15 min. The reaction was then initiated by adding 74 μL of 100 mM uridine-5’-diphospho-α-D-glucuronic acid (UDPGA) and incubated at 37 °C for 0, 5, 15, 30, and 60 min. […] The dried sample was reconstituted in 100 μL of 20% acetonitrile and stored at −20 °C before analyzed by LC-MS/MS on the next day. […]

respiration in mice = system: respiration in mice; parameters: method as in PMID 38005269; conditions: high doses up to 15 times the ED50, mice; cited from earlier work

For `C[C@@H](O)[C@@H]1NC(=O)[C@H](CNC(=O)c2ccccc2N)NC(=O)[C@H](NC(=O)[C@@H](N)Cc2ccc(O)cc2)CCCCNC(=O)CNC1=O` [CycloAnt] (H-Y[dK][Dap](2Abz)TG; lactam 2-C), the remaining at 8 h, 20 µM (Stability in mouse serum) was 82.3%, the “stability in mouse liver microsomes with NADPH (CYP450)” value [1] was “no significant concentration change” and the “stability against glucuronidation in mouse liver microsomes (UGTs)” value [2] was “stable against glucuronidation”. For the same molecule, the respiratory depression (respiration in mice) was “does not produce any respiratory depression”.
